Results from patent EP0369657A2, “Chromogenic substrate for esterase and immunoassay using same” (Becton Dickinson and Company, priority 1988, dated 1990).

System: rabbit liver esterase (RLE)
Experiment: Stopping of DCIPB color formation in the dual enzyme assay for Influenza A
Assay type: biochemical
Details: added after five minute incubation with DCIPB; TFAP as 40 µL of 1 mM in 50 mM Tris, pH 7.5; read at 620 nm
Method: A mixture of the blocked inhibitor from Example II (1 x 10⁻⁴M) and rabbit liver esterase (RLE) (5 x 10⁻⁹M) in 50 mM diethanolamine (DEOA), pH 9.0 was added to each well (150 µL), and incubated at room temperature for 20 minutes.
A solution of DCIPB (0.35 mM in 50 mM Tris, pH 7.5, containing 20% methanol) was added to each well (150 µL). After a five minute incubation, 40 µL of a solution of 1 mM 1,1,1-trifluoroacetophenone (TFAP) in 50 mM Tris, pH 7.5, was added to stop the reaction.
The same effect was achieved by the addition of free inhibitor (product B from Example II). After "stopping," test wells having a high concentration of antigen remained colorless for several hours.

| SMILES | effect on color formation process |
| --- | --- |
| O=C(c1ccccc1)C(F)(F)F [1,1,1-trifluoroacetophenone (TFAP), 1,1,1-trifluoroacetophenone] | stopped the color formation process |
| O=C(CCc1ccc(O)cc1)C(F)(F)F [compound 3, 1,1,1-trifluoro-4-(4-hydroxyphenyl)-2-butanone] | same effect |
